Reference: publication PMC4211601, “Defining the conformation of human mincle that interacts with mycobacterial trehalose dimycolate” (Glycobiology, 2014)

target: T1, human mincle CRD (Homo sapiens, UniProt Q9ULY5); test: competition with […]-Man31-BSA on immobilised CRD; format: binding
T1 construct: gene CLEC4E; C-terminal biotinylation tag kept; immobilised on streptavidin plates
T1 sequence (Q9ULY5 74-219): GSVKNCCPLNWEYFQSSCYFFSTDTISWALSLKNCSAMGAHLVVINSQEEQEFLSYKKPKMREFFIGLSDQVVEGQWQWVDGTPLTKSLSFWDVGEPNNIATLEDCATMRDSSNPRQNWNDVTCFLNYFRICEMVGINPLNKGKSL

SMILES	Ki [µM]
CCCCCC(=O)OC[C@H]1O[C@H](O[C@H]2O[C@H](COC(=O)CCCCC)[C@@H](O)[C@H](O)[C@H]2O)[C@H](O)[C@@H](O)[C@@H]1O [dihexanoate derivative]	12.5
CCCCCC(=O)OC[C@H]1O[C@H](O[C@H]2O[C@H](CO)[C@@H](O)[C@H](O)[C@H]2O)[C@H](O)[C@@H](O)[C@@H]1O [monohexanoate derivative]	184 ± 6
CCCCCCCC(=O)OC[C@H]1O[C@H](O[C@H]2O[C@H](CO)[C@@H](O)[C@H](O)[C@H]2O)[C@H](O)[C@@H](O)[C@@H]1O [monooctanoyl trehalose]	45 ± 4
